Source: patent EP4772500A1, “NOVEL ISOXAZOLE COMPOUND AS TM4SF5-SPECIFIC INHIBITOR AND USE THEREOF” (Seoul National University R&DB Foundation, priority 2023, dated 2025)

System: TM4SF5-expressing cells (SNU449T7)
Assay: Subcutaneous xenograft model of TM4SF5-expressing liver cancer cell line
Type: in vivo, BALB/c-Nude mice
Conditions: for tumor volume / liver cancer formation inhibitory effect: 5 mg/kg IP every 3 days, 8 times; for tumor volume: vs vehicle (FIG. 11c); for liver cancer formation inhibitory effect: images of recovered cancer tissues (FIG. 11b); for expressions of factors related to fibrosis, inflammation-related cytokines/chemokines (CCL2, CCL5, or CCL20), and AFP: cancer tissues vs vehicle (FIG. 11e); for phosphorylation of FAK, STAT3, c-Src, Akt and p27: liver cancer tissue extracts, three days after last injection (FIG. 11d)
Experimental: The next day, the cells were detached by treating with a T/E (Trypsin/EDTA) solution and centrifuged at 150x g for 3 minutes to obtain a pellet. Thereafter, the supernatant was removed, and the pellet was prepared by resuspension in phosphate buffered saline (PBS). For the generation of liver cancer, 10^7 cells/100 µl were injected once subcutaneously into the right thigh area of 8-week-old male BALB/c-Nude mice. At this time, the animals were anesthetized by inhalation with […] and injected. From the 7th day after the cell injection, drugs ST-2-001, ST-3-006, and ST-3-011 were each intraperitoneally injected at 5 mg/kg of body weight for a total of 8 times every 3 days. The body weight of the animals was measured every week from the day of cell injection, and the tumor volume was measured every 3 days from the 7th day after the cell injection. The tumor volume was calculated as (length×width×width)/2 (mm^3) by measuring the length and width of the tumor. Finally, on the 31st day after the cell injection, the animals were sacrificed by a standard method, and liver tissues were obtained to analyze the liver cancer tissues.
Eight-week-old male BALB/c-Nude mice (n=8, Orient, Seongnam, Republic of Korea) were allowed free access to a normal diet, and TM4SF5-non-expressing cells (SNU449Cp) and TM4SF5-expressing cells (SNU449T7) were injected once subcutaneously at a dose of 10^7 cells per mouse. Starting from the 7th day after the cell injection, drug ST-2-001, ST-3-006, or ST-3-011 was intraperitoneally injected at 5 mg/kg of body weight every 3 days for a total of 8 times. Body weight and tumor volume were measured every week, and on the 31st day after the cell injection, the mice were anesthetized by a standard method, liver tissues were obtained, and the size of the liver cancer tissues was photographed. Thereafter, the tissues were randomly divided into several sets and analyzed by immunohistochemistry, Western blot, qRT-PCR, etc.

SMILES	tumor volume	liver cancer formation inhibitory effect	expressions of factors related to fibrosis, inflammation-related cytokines/chemokines (CCL2, CCL5, or CCL20), and AFP	phosphorylation of FAK, STAT3, c-Src, Akt and p27
CC(=O)Nc1ccc(-c2cc(-c3ccc(F)cc3)on2)cc1 [ST-3-006, N-(4-(5-(4-fluorophenyl)isoxazole-3-yl)phenyl)acetamide]	statistically significantly inhibited	relatively less than those of ST-2-001	decreased	significantly inhibited
COc1ccc(-c2cc(-c3cccc(NC(C)=O)c3)no2)cc1 [ST-3-011, N-(3-(5-(4-methoxyphenyl)isoxazole-3-yl)phenyl)acetamide]	statistically significantly inhibited	relatively less than those of ST-2-001	decreased	significantly inhibited
COc1ccc(-c2cc(-c3ccc(NC(C)=O)cc3)no2)cc1 [ST-2-001, N-(4-(5-(4-methoxyphenyl)isoxazole-3-yl)phenyl)acetamide]	statistically significantly inhibited	the greatest	decreased	significantly inhibited
